Experimental data published in PubChem BioAssay (NCI).
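A five-concentration, 48-hour dose response in 96-well plates underlies each endpoint, interpolated linearly between surrounding concentrations. Here, GI50 denotes the concentration required for 50% inhibition of growth. TGI is the concentration that stops growth completely.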

Key:
Test in all cases: NCI anticancer screen, dose series, 48 h
[1] = test system: OVCAR-3 ovarian
[2] = test system: HCT-15 colon
[3] = test system: BT-549 breast
[4] = test system: OVCAR-5 ovarian
[5] = test system: NCI-H226 lung
[6] = test system: OVCAR-8 ovarian
[7] = test system: TK-10 renal
[8] = test system: CAKI-1 renal
[9] = test system: HCC-2998 colon
[10] = test system: SW-620 colon
[11] = test system: UO-31 renal
[12] = test system: SF-268 CNS

| SMILES | TGI [1] [µM] | TGI [2] [µM] | TGI [3] [µM] | TGI [4] [µM] | TGI [5] [µM] | TGI [6] [µM] | TGI [7] [µM] | TGI [8] [µM] | TGI [9] [µM] | TGI [10] [µM] | GI50 [1] [µM] | GI50 [2] [µM] | GI50 [3] [µM] | GI50 [5] [µM] | GI50 [6] [µM] | GI50 [11] [µM] | GI50 [8] [µM] | GI50 [4] [µM] | TGI [11] [µM] | TGI [12] [µM] |
| --- | --- | --- | --- | --- | --- | --- | --- | --- | --- | --- | --- | --- | --- | --- | --- | --- | --- | --- | --- | --- |
| N=c1c2c(=S)n(-c3ccccc3)c(=S)n(-c3ccccc3)c2nc(SCCCN2CCN(c3cccc(Cl)c3)CC2)n1-c1ccccc1 | > 100 | > 100 | > 100 | > 100 | > 100 | > 100 | > 100 | > 100 | > 100 | > 100 |  |  |  |  |  |  |  |  |  |  |
| Nc1nc(Cl)cc(OCC2(CO)CC(OCc3ccccc3)C2)n1 (stereo unspecified) |  |  |  |  |  |  |  |  |  |  | 47.1 | 83.8 | 46 | 74 | 66.6 | 40.1 | 48.2 |  |  |  |
| N=C(N)c1ccc(-c2ccc(-c3ccccc3)s2)cc1 |  |  | 19.9 | 2.94 | 14.6 |  |  | 2.92 |  |  |  |  | 3.22 | 3.01 |  | 1.48 | 1.58 | 1.59 | 2.81 |  |
| CCCCCCCC/C=C\CCCCCCCC(=O)O | > 232 | 338 |  | > 500 | 227 | 194 |  | 206 | > 500 | 355 |  |  |  |  |  |  |  |  | 241 | 192 |
| CC(=O)Oc1ccc2c(c1)oc1c3ccc(OC(C)=O)cc3n(C)c(=O)c21 | > 100 | > 100 | > 100 | > 100 | 53.1 | 79.3 | > 100 |  | 57.1 | > 100 |  |  |  |  |  |  |  |  | > 100 | 78.2 |
| O=C1C=CC2=[N+]([O-])C(c3ccccc3)(c3ccccc3)C(=Nc3ccccc3)C2=C1 | 3.37 | 6.34 |  | 30 | 22.3 | 3.39 | 3.27 | 6.33 | 19.6 | 3.65 |  |  |  |  |  |  |  |  | 5.33 | 11.4 |
| Cc1cc(C)c2c(c1)CC1(Cc3c(C)ccc(C)c3C1=O)C2=O (stereo unspecified) | > 100 | > 100 | > 100 | > 100 | > 100 | > 100 | > 100 | > 100 | > 100 | > 100 |  |  |  |  |  |  |  |  |  | > 100 |
| CCNc1nnc(-c2nsc3ccccc23)s1 | 57.6 | > 100 |  | > 100 |  | > 100 | > 100 |  | > 100 | > 100 |  |  |  |  |  |  |  |  | > 100 | 80.9 |
| COC(=O)c1cccc(N[C@@H]2c3cc4c(cc3C(c3cc(OC)c(O)c(OC)c3)[C@H]3C(=O)OCC32)OCO4)c1 (stereo partly specified) | 33.7 | 4.54 |  | > 100 | 3.6 | > 37 |  | 2.91 | 8.09 | > 100 |  |  |  |  |  |  |  |  | 11.7 | > 42.5 |
| C=C1C(=O)C[C@@]23CCC[C@@]12CC(OCOC)C3 (stereo partly specified) | 6.48 | 3.08 |  | 8.26 | 4.66 | 9.96 |  | 6.94 | 12.3 | 3.97 |  |  |  |  |  |  |  |  | 13.3 | 17.5 |
| S=P1(N2CCCCC2)Oc2ccc3ccccc3c2-c2c(ccc3ccccc23)O1 | > 88.3 | > 100 |  | > 100 | > 100 | > 100 |  | > 100 | > 100 | > 100 |  |  |  |  |  |  |  |  | > 100 | > 100 |
| Cc1ccc([N+](=O)[O-])cc1S(=O)(=O)Nc1ccc(C2=NNC(c3ccccc3O)C2)cc1 (stereo unspecified) | 43.7 | 97.6 | 63.5 | > 100 | > 100 | > 100 | > 100 | > 100 | > 100 | > 100 |  |  |  |  |  |  |  |  | 79.2 | > 100 |
